In patent US7951829B2, “Benzimidazole modulators of VR1” (Janssen Pharmaceutica NV, priority 2006, dated 2011) one finds inhibition and IC50 data, which are given here for 23 molecules.

Molecules are shown by their SMILES. Bounds are passed on as bounds.

The target of this assay is T1, hVR1 (Homo sapiens, UniProt Q8NER1).
T1 construct: expressed in transfected cells; host or cells: HEK293
Put plainly: Human VR1 (hVR1) Functional Assay (FLIPR intracellular calcium, capsaicin challenge). Format: cell-based. The following applies: capsaicin 0.030 μM, HEK293 cells expressing hVR1; for inhibition at 1 µM: test concentration 1 μM.

T1 sequence (Q8NER1 whole entry): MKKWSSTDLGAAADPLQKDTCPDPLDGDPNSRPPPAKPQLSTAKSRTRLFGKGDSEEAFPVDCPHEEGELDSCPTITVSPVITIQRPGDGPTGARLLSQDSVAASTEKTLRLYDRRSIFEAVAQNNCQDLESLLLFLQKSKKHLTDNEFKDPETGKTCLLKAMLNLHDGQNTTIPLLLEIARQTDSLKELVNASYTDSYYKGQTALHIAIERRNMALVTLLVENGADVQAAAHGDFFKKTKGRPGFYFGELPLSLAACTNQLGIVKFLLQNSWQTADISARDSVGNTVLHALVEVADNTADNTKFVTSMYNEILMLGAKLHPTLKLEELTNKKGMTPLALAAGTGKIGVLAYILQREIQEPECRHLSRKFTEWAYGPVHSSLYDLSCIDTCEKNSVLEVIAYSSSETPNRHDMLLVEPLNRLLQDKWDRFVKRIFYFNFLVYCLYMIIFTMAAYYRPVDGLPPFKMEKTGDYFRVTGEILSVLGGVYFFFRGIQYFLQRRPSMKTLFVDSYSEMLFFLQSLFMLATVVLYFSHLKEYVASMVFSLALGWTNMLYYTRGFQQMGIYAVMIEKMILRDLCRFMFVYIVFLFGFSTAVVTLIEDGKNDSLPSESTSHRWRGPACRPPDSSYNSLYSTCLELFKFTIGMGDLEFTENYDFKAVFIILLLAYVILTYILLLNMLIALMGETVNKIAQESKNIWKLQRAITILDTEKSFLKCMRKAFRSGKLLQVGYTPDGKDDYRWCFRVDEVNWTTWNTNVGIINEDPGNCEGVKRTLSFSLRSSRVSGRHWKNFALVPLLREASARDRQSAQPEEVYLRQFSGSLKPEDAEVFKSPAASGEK

On to `CS(=O)(=O)c1ccc(/C=C/c2nc3cc(-c4ccccc4S(N)(=O)=O)ccc3[nH]2)cc1` [Cpd 85, (E)-2-{2-[2-(4-methanesulfonyl-phenyl)-vinyl]-1H-benzimidazol-5-yl}-benzenesulfonamide], for which the inhibition at 1 µM is 16%. As for `OCc1ccccc1-c1cc2nc(/C=C/c3ccc(C(F)(F)F)cc3)[nH]c2cc1F` [Cpd 61, (E)-(2-{6-fluoro-2-[2-(4-trifluoromethyl-phenyl)-vinyl]-1H-benzimidazol-5-yl}-phenyl)-methanol], the IC50 worked out at 75 nM and the inhibition at 1 µM is 100%. `CC(C)(O)c1ccccc1-c1ccc2[nH]c(C#Cc3ccc(C(F)(F)F)cc3)nc2c1` [Cpd 492, 2-{2-[2-(4-trifluoromethyl-phenylethynyl)-1H-benzimidazol-5-yl]-phenyl}-propan-2-ol]: the IC50 is 5 nM and the inhibition at 1 µM was 99%.

For `CS(=O)(=O)Nc1ccccc1-c1ccc2[nH]c(/C=C/c3ccc(C(F)(F)F)c(F)c3)nc2c1` [Cpd 417, (E)-N-(2-{2-[2-(3-fluoro-4-trifluoromethyl-phenyl)-vinyl]-1H-benzimidazol-5-yl}-phenyl)-methanesulfonamide], the IC50 worked out at 11 nM and the inhibition at 1 µM was 100%. Take `CC(C)(O)c1ccccc1-c1ccc2[nH]c(C3CC3c3cccc(C(F)(F)F)c3)nc2c1` (centres unmarked) [Cpd 234, 2-(2-{2-[2-(3-trifluoromethyl-phenyl)-cyclopropyl]-1H-benzimidazol-5-yl}-phenyl)-propan-2-ol]: the inhibition at 1 µM came out at 7%. Turning to `OCc1ccccc1-c1ccc2[nH]c(/C=C/c3ccc(SC(F)(F)F)cc3)nc2c1` [Cpd 35, (E)-(2-{2-[2-(4-trifluoromethylsulfanyl-phenyl)-vinyl]-1H-benzimidazol-5-yl}-phenyl)-methanol], the half-maximal inhibitory concentration (IC50) was 41 nM and the inhibition at 1 µM came to 100%. For `CNS(=O)(=O)c1ccccc1-c1ccc2[nH]c(/C=C/c3ccc(Cl)cc3Cl)nc2c1` [Cpd 337, (E)-2-{2-[2-(2,4-dichloro-phenyl)-vinyl]-1H-benzimidazol-5-yl}-N-methyl-benzenesulfonamide] the same measures were 14 nM and 96%.

As for `CS(=O)(=O)Nc1ccccc1-c1ccc2[nH]c(/C=C/c3ccc(F)c(Cl)c3)nc2c1` [Cpd 408, (E)-N-(2-{2-[2-(3-chloro-4-fluoro-phenyl)-vinyl]-1H-benzimidazol-5-yl}-phenyl)-methanesulfonamide], the inhibition at 1 µM is 64%.

Take `CS(=O)(=O)Nc1ccccc1-c1ccc2[nH]c(/C=C/c3cccc(C(F)(F)F)c3)nc2c1` [Cpd 113, (E)-N-(2-{2-[2-(3-trifluoromethyl-phenyl)-vinyl]-1H-benzimidazol-5-yl}-phenyl)-methanesulfonamide]: the inhibition at 1 µM turned out to be 48%.

Consider `NS(=O)(=O)c1ccccc1-c1ccc2[nH]c(/C=C/c3ccc(F)c(F)c3F)nc2c1` [Cpd 370, (E)-2-{2-[2-(2,3,4-trifluoro-phenyl)-vinyl]-1H-benzimidazol-5-yl}-benzenesulfonamide], for which the half-maximal inhibitory concentration (IC50) is 13 nM and the inhibition at 1 µM worked out at 98%.

As for `NS(=O)(=O)c1ccccc1-c1ccc2[nH]c(CCc3cccc(F)c3F)nc2c1` [Cpd 394, 2-{2-[2-(2,3-difluoro-phenyl)-ethyl]-1H-benzimidazol-5-yl}-benzenesulfonamide], the 50% inhibitory concentration (IC50) was determined as 6 nM and the inhibition at 1 µM came to 98%. `NS(=O)(=O)c1ccccc1-c1ccc2[nH]c(/C=C/c3ccc(F)c(Cl)c3)nc2c1` [Cpd 432, (E)-2-{2-[2-(3-chloro-4-fluoro-phenyl)-vinyl]-1H-benzimidazol-5-yl}-benzenesulfonamide]: the 50% inhibitory concentration (IC50) was found to be 15 nM and the inhibition at 1 µM stood at 98%.

Turning to `CC(C)(C)OC(=O)Nc1ccccc1-c1cc2nc(/C=C/c3ccc(C(C)(C)C)cc3)[nH]c2cc1C(F)(F)F` [Cpd 54, (E)-(2-{2-[2-(4-tert-butyl-phenyl)-vinyl]-6-trifluoromethyl-1H-benzimidazol-5-yl}-phenyl)-carbamic acid tert-butyl ester], the inhibition at 1 µM was determined as 20%. As to `NC(=O)c1ccccc1-c1cc2nc(/C=C/c3ccc(C(F)(F)F)cc3)[nH]c2cc1F` [Cpd 63, (E)-2-{6-fluoro-2-[2-(4-trifluoromethyl-phenyl)-vinyl]-1H-benzimidazol-5-yl}-benzamide], the IC50 turned out to be 260 nM and the inhibition at 1 µM came out at 97%. As for `NS(=O)(=O)c1ccccc1-c1ccc2[nH]c(C#Cc3ccc(C(F)(F)F)cc3)nc2c1` [Cpd 250, 2-[2-(4-trifluoromethyl-phenylethynyl)-1H-benzimidazol-5-yl]-benzenesulfonamide], the half-maximal inhibitory concentration (IC50) worked out at 19 nM and the inhibition at 1 µM is 98%. For `NS(=O)(=O)c1ccccc1-c1ccc2[nH]c(/C=C/c3cc(F)c(F)cc3F)nc2c1` [Cpd 371, (E)-2-{2-[2-(2,4,5-trifluoro-phenyl)-vinyl]-1H-benzimidazol-5-yl}-benzenesulfonamide], the 50% inhibitory concentration (IC50) turned out to be 18 nM and the inhibition at 1 µM amounted to 98%. As for `NS(=O)(=O)c1ccccc1-c1ccc2[nH]c(/C=C/c3ccc(Cl)c(C(F)(F)F)c3)nc2c1` [Cpd 378, (E)-2-{2-[2-(4-chloro-3-trifluoromethyl-phenyl)-vinyl]-1H-benzimidazol-5-yl}-benzenesulfonamide], the 50% inhibitory concentration (IC50) came out at 12 nM and the inhibition at 1 µM was 100%.

As to `NS(=O)(=O)c1ccccc1-c1ccc2[nH]c(CCc3ccc(F)c(C(F)(F)F)c3)nc2c1` [Cpd 383, 2-{2-[2-(4-fluoro-3-trifluoromethyl-phenyl)-ethyl]-1H-benzimidazol-5-yl}-benzenesulfonamide], the IC50 was found to be 11 nM and the inhibition at 1 µM amounted to 96%. For the molecule `CNS(=O)(=O)c1ccccc1-c1ccc2[nH]c(/C=C/c3ccc(C)cc3)nc2c1` [Cpd 314, (E)-N-methyl-2-[2-(2-p-tolyl-vinyl)-1H-benzimidazol-5-yl]-benzenesulfonamide], the half-inhibitory concentration (IC50) is 18 nM and the inhibition at 1 µM stood at 100%.

Regarding `CC(C)(C)OC(=O)Nc1ccccc1-c1ccc2[nH]c(C3CC3c3ccc(C(F)(F)F)cc3)nc2c1` (centres unmarked) [Cpd 473, (2-{2-[2-(4-trifluoromethyl-phenyl)-cyclopropyl]-1H-benzimidazol-5-yl}-phenyl)-carbamic acid tert-butyl ester], the half-inhibitory concentration (IC50) is greater than 500 nM.

With `NS(=O)(=O)c1ccccc1-c1ccc2[nH]c(/C=C/c3cc(F)ccc3F)nc2c1` [Cpd 360, (E)-2-{2-[2-(2,5-difluoro-phenyl)-vinyl]-1H-benzimidazol-5-yl}-benzenesulfonamide], the half-inhibitory concentration (IC50) amounted to 46 nM and the inhibition at 1 µM came out at 98%. `CNS(=O)(=O)c1ccccc1-c1ccc2[nH]c(/C=C/c3ccc(C(=O)NC(C)C)cc3)nc2c1` [Cpd 450, (E)-N-isopropyl-4-{2-[5-(2-methylsulfamoyl-phenyl)-1H-benzimidazol-2-yl]-vinyl}-benzamide]: the inhibition at 1 µM came out at 27%. As to `CS(=O)(=O)Nc1ccccc1-c1ccc2[nH]c(/C=C/c3ccc(S(C)(=O)=O)cc3)nc2c1` [Cpd 83, (E)-N-(2-{2-[2-(4-methanesulfonyl-phenyl)-vinyl]-1H-benzimidazol-5-yl}-phenyl)-methanesulfonamide], the half-maximal inhibitory concentration (IC50) was greater than 500 nM.
